Laboratory results from patent US20250051300A1, “GRAM-NEGATIVE SPECIFIC ANTIBIOTICS SPARING EFFECT ON GUT MICROBIOME” (THE BOARD OF TRUSTEES OF THE UNIVERSITY OF ILLINOIS, priority 2021, published 2025).
Like-named read-outs stand apart in the source and are kept apart here.

Columns and labels:
Enterococcus faecium = assay: MIC, micro-dilution broth method (CLSI); assay type: cell-based; settings: ATCC19434; Enterococcus faecium ATCC 19434
Description: (§1) Antimicrobial susceptibility assays.

Listeria monocytogenes = assay: MIC, micro-dilution broth method (CLSI); assay type: cell-based; settings: ATCC19115; Listeria monocytogenes ATCC 19115
Description: as §1

Pseudomonas aeruginosa = assay: MIC, micro-dilution broth method (CLSI); assay type: cell-based
Description: as §1

Staphylococcus aureus = assay: MIC, micro-dilution broth method (CLSI); assay type: cell-based; settings: ATCC29213; Staphylococcus aureus ATCC 29213
Description: as §1

[1] = tested on: Staphylococcus epidermidis; assay: MIC, micro-dilution broth method (CLSI); assay type: cell-based; settings: Staphylococcus epidermidis NRS101
Description: as §1

Streptococcus pneumoniae = assay: MIC, micro-dilution broth method (CLSI); assay type: cell-based; settings: Streptococcus pneumoniae Strain 1003
Description: as §1

[2] = Pharmacokinetic assessment in mice (serum, LC-MS/MS); assay type: in vivo, C57BL/6 mice; settings: for Cmax / half-life / AUC: female, 200 mg/kg single dose; for Cmax / half-life: C57BL/6, mouse, serum; for AUC: C57BL/6, mouse serum
Protocol: C57BL/6 mice were treated with lolamcyin at a single dose of 200 mg/kg via IP injection (formulated in 50% DMSO and 50% PEG400) or oral gavage (formulated in 20% DMSO, 30% water, and 50% PEG400) with three mice per time point (0, 15, 30, 45, 60, 120, 240, 480, 960, and 1,440 min). Mice were then sacrificed and serum concentrations of lolamycin were determined by liquid chromatography-tandem mass spectrometry (LC-MS/MS). Oral bioavailability was calculated by comparing the concentration of lolamycin in mouse serum levels resulting from these two administration routes.
Pharmacokinetic Assessment of compound 2 and lolamycin. The protocol was approved by the Institutional Animal Care and Use Committee (IACUC) at the University of Illinois at Urbana-Champaign. In these studies, 10- to 12-week-old female C57BL/6 mice purchased from Charles River Laboratories were used. Mice were randomly chosen and divided into subsequent groups. No additional randomization was used to allocate the experimental groups; blinding was not performed for subsequent quantitation. First, the pharmacokinetic assessment via intraperitoneal injection was determined. Compound 2 and lolamycin were formulated in 50% DMSO and 50% PEG400. Mice were treated with compound 2 (200 mg/kg) or lolamycin (200 mg/kg) via intraperitoneal injection, with three mice per time point (0, 15, 30, 45, 60, 120, 240, 480, 960, and 1,440 min). At the specified time points, mice were killed, blood was collected and centrifuged, and the serum was frozen at −80° C. until analysis. The proteins in a 10-μL aliquot of serum were precipitated by the addition of 50 μL methanol with the addition of 10 μL internal standard. The sample was then vortexed and centrifuged to remove the proteins. Supernatants were analyzed with the QTRAP 5500 LC/MS/MS system (Sciex) in the Metabolomics Laboratory of the Roy J. Carver Biotechnology Center, University of Illinois at Urbana-Champaign.
Next, the pharmacokinetic assessment via oral gavage was determined. Lolamycin was formulated in 20% DMSO, 30% water, and 50% PEG400. Mice were treated with lolamycin (200 mg/kg) via oral gavage, with three mice per time point (0, 15, 30, 45, 60, 120, 240, 480, 960, and 1,440 min). At the specified time points, mice were killed, blood was collected and centrifuged, and the serum was frozen at −80° C. until analysis similar to before. Software Analyst 1.6.2 was used for data acquisition and analysis. The 1200 Series HPLC system (Agilent Technologies) includes a degasser, an autosampler and a binary pump. The liquid chromatography separation was performed on an Agilent Zorbax SB-Aq column (4.6×50 mm; 5 μm) with mobile phase A (0.1% formic acid in water) and mobile phase B (0.1% formic acid in acetonitrile). The autosampler was set at 10° C. The injection volume was 5 μL. Mass spectra were acquired using electrospray ionization with a voltage of 5,500 V. The source temperature was 450° C. The curtain gas, ion source gas 1 and ion source gas 2 were […], respectively. Multiple reaction monitoring was used for quantitation with external standard. The limit of quantitation of (S/N=10) was 1 nM. Pharmacokinetic parameters were calculated with a one-compartment model using a nonlinear regression program (Phoenix WinNonlin Version 8.1; Certara USA).

K. pneumoniae BAA-1705 = assay: Bacterial sepsis survival model; assay type: in vivo, CD-1 mice; settings: carbapenem-resistant K. pneumoniae, 200 mg/kg IP once daily for 3 days (FIG. 7D)
E. cloacae AR0163 [3] = assay: Acute pneumonia bacterial burden model; assay type: in vivo, CD-1 mice; settings: colistin-resistant E. cloacae, 100 mg/kg IP (FIG. 7E)
E. cloacae AR0163 [4] = assay: Bacterial sepsis survival model; assay type: in vivo, CD-1 mice; settings: colistin-resistant E. cloacae, 100 mg/kg IP twice daily for 3 days (FIG. 7F)
gut microbiome = settings: mouse, in vivo, po
Bacteroides vulgatus = assay: MIC, gut commensal bacteria, micro-dilution broth
[5] = tested on: Stenotrophomonas maltophilia; assay: MIC, gut commensal bacteria, micro-dilution broth
Morganella morganii = assay: MIC, gut commensal bacteria, micro-dilution broth
Proteus mirabilis = assay: MIC, gut commensal bacteria, micro-dilution broth
[6] = tested on: Streptococcus parasanguinis; assay: MIC, gut commensal bacteria, micro-dilution broth
Blautia producta = assay: MIC, gut commensal bacteria, micro-dilution broth

With `Cc1cc(-c2c[nH]nc2-c2cccc(OCc3cccc(C#N)c3)c2)cc(C)n1` [Compound 12, 3-((3-(4-(2,6-dimethylpyridin-4-yl)-1H-pyrazol-3-yl)phenoxy)methyl)benzonitrile] the MIC (Enterococcus faecium) was over 128 µg/mL, the MIC (Listeria monocytogenes) was over 128 µg/mL and the MIC (Pseudomonas aeruginosa; Pseudomonas aeruginosa PAO1, read-out: MIC) was over 128 µg/mL. The MIC (Pseudomonas aeruginosa; Pseudomonas aeruginosa PAO1 Δ6) was over 128 µg/mL, the MIC (Staphylococcus aureus) was over 128 µg/mL and the MIC [1] was over 128 µg/mL. For the same molecule, the MIC (Streptococcus pneumoniae) was over 128 µg/mL, the Cmax ([2]; IP injection) was 38.2 µM and the half-life ([2]; IP injection) was 2.07 h. It also gave a Cmax ([2]; oral gavage) of 26.4 µM, a half-life ([2]; oral gavage) of 1.1 h and an AUC ([2]; IP injection) of 43400 ng·h/mL. For the same molecule, the AUC ([2]; oral gavage) was 20500 ng·h/mL, the Oral bioavailability ([2]; mice, oral vs IP, 200 mg/kg) was “significant oral bioavailability” and the “efficacy, survival” value (K. pneumoniae BAA-1705) was “showed the efficacy”. For the same molecule, the “efficacy, bacterial burden” value (E. cloacae AR0163 [3]) was “showed the efficacy”, the “efficacy, survival” value (E. cloacae AR0163 [4]) was “showed the efficacy” and the “effect on gut microbiome taxonomic composition” value (gut microbiome) was “did not cause any drastic changes in taxonomic composition”. The MIC (Bacteroides vulgatus; Bacteroides vulgatus KLE 2303, BHI-ych, listed as Lolamycin) was over 128 µg/mL, the MIC (Bacteroides vulgatus; Phocaeicola vulgatus) was over 128 µg/mL and the MIC ([5]; Stenotrophomonas maltophilia ATCC 13637, BHI-ych, listed as Lolamycin) was over 128 µg/mL. The MIC ([5]; Stenotrophomonas maltophilia, ATCC13637) was over 128 µg/mL, the MIC (Morganella morganii; ATCC25380) was over 128 µg/mL and the MIC (Morganella morganii; ATCC25839) was over 128 µg/mL. For the same molecule, the MIC (Proteus mirabilis; Proteus mirabilis ATCC 35659, listed as Lolamycin) was over 128 µg/mL, the MIC (Proteus mirabilis; Proteus mirabilis, ATCC35659) was over 128 µg/mL and the MIC ([6]; Streptococcus parasanguinis) was over 128 µg/mL. It also gave an MIC ([6]; Streptococcus parasanguinis KLE 2375, BHI-ych, listed as Lolamycin) of over 128 µg/mL, an MIC (Blautia producta) of over 128 µg/mL and an MIC (Blautia producta; Blautia producta, ATCC27340) of over 128 µg/mL.
